Experimental data published in patent publication US20230365559A1, “NOVEL AMINOPYRIDINES AND THEIR USE IN TREATING CANCER” (priority 2020, published 2023).
“And” between values parts separate entries of the source, which are not always exact repeats. Equal entries are not always repeated. Where two headings read alike, the source gives them in different places.

Tests used:
HAP1/PRKDC−/− cells = assay: Radiosensitisation of DNA-PK null HAP1/PRKDC−/− cells, regrowth assay; type: cell-based, human; conditions: for radiosensitisation / differential growth inhibition of DNA-PK null HAP1 line: 3 Gy, HAP1/PRKDC−/−; for IC50: Homo sapiens, HAP1
[1] = biological target: T1, Ser1981 of ataxia-telangiectasia mutated (ATM) (Homo sapiens, UniProt Q13315); assay: Inhibition of phosphorylation of Ser1981 of ATM in UT-SCC-54C cells, western immunoblotting; type: cell-based; conditions: oxia, 10 Gy, FIG. 7 (10 μM)
T1 construct: Ser1981 of ataxia-telangiectasia mutated (ATM) in UT-SCC-54C cells
T1 sequence (Q13315 whole entry, change not shown): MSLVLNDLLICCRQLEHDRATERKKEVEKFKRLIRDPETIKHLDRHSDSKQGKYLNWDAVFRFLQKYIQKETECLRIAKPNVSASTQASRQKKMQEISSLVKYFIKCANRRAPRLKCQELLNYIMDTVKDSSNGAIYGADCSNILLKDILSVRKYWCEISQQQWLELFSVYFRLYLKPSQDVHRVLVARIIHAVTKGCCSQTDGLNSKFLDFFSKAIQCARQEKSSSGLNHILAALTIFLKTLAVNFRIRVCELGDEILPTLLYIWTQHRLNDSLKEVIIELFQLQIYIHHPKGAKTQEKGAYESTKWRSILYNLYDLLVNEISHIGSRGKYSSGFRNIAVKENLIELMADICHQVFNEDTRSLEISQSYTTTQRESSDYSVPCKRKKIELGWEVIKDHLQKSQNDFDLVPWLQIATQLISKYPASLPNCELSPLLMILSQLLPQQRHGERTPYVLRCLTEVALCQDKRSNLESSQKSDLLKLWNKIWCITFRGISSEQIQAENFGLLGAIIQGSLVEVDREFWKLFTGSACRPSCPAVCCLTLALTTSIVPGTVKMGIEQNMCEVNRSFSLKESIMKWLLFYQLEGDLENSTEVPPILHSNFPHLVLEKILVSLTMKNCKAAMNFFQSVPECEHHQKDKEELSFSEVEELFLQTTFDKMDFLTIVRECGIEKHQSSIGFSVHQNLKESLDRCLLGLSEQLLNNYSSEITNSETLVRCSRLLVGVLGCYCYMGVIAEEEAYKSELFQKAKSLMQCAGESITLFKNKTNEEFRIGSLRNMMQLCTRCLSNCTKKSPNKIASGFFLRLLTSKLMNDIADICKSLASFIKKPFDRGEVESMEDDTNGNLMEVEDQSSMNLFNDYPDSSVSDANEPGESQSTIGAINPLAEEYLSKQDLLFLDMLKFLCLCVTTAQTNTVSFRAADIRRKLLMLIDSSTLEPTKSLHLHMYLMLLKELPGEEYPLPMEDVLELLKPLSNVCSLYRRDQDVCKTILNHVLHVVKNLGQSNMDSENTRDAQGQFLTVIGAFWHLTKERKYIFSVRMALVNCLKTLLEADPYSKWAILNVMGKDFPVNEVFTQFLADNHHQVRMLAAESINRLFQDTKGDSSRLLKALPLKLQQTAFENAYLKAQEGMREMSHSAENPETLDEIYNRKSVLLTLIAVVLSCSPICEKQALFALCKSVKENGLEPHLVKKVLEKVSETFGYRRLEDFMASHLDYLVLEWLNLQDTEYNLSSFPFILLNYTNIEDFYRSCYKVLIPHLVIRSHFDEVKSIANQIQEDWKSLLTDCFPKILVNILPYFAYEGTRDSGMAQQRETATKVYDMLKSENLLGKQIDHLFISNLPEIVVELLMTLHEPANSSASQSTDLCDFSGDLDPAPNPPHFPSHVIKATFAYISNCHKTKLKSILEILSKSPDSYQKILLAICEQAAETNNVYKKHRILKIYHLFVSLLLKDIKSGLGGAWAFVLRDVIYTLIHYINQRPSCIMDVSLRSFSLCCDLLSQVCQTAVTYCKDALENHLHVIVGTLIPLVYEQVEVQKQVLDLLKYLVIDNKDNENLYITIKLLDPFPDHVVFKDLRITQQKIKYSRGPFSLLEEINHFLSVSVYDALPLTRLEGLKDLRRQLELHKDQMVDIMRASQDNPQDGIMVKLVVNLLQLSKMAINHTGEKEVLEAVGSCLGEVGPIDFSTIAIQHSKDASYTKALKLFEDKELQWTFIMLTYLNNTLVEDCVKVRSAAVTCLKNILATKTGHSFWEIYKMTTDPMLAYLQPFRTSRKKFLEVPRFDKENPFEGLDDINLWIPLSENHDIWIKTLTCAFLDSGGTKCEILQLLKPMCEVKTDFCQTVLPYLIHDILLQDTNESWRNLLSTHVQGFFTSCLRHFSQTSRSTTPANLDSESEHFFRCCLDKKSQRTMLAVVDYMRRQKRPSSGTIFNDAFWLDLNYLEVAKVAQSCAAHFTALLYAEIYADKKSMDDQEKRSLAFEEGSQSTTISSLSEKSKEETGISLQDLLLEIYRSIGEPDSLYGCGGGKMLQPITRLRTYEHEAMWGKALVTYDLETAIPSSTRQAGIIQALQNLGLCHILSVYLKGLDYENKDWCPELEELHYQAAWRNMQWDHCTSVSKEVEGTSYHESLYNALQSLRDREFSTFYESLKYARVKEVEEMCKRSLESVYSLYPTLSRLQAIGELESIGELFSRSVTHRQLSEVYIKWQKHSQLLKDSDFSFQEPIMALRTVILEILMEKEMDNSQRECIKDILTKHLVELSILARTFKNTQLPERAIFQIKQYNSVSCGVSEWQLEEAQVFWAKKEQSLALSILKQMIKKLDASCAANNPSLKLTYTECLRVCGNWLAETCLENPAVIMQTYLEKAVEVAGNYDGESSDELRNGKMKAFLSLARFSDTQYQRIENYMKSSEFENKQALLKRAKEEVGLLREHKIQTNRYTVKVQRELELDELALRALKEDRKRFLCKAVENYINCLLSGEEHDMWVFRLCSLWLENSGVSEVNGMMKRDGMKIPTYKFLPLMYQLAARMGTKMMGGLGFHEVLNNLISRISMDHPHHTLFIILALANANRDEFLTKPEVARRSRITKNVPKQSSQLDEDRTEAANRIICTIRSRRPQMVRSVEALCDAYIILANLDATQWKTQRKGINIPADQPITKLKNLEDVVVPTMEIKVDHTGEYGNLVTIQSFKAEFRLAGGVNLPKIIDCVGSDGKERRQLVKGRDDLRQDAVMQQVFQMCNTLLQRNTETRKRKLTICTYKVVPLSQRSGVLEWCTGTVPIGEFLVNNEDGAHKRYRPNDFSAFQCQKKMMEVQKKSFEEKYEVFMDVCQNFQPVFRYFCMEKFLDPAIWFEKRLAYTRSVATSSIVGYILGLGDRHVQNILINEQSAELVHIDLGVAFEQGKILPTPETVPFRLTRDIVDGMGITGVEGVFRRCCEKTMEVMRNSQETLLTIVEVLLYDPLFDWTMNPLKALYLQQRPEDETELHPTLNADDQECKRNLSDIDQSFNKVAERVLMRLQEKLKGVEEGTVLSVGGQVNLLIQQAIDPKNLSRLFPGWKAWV

Ser2056 of DNA-PKcs = Ser2056 of DNA-PKcs (Homo sapiens, UniProt P78527); assay: Inhibition of cellular autophosphorylation at Ser2056 of DNA-PKcs in UT-SCC-54C cells, western immunoblotting; type: cell-based
human DNA-PK = human DNA-PK (Homo sapiens, UniProt P78527); assay: Inhibition of DNA-PKcs kinase activity, HotSpot assay (Reaction Biology), [γ-33P]-ATP phosphorylation of peptide substrate; type: biochemical
HAP1 cells = assay: Radiosensitisation of HAP1 wild type cells, regrowth assay; type: cell-based, human; conditions: for radiosensitisation / differential growth inhibition of HAP1 cells: 3 Gy cobalt-60 gamma irradiation relative to radiation-only; for IC50: Homo sapiens, HAP1, read-out: HAP1 wt IC50
human mTOR = human mTOR (Homo sapiens, UniProt P42345); assay: Inhibition of mTOR kinase activity, HotSpot assay, phosphorylation of 4EPB1
human PI3Kα (p110α/p85α) = human PI3Kα (p110α/p85α) (Homo sapiens, UniProt P42336); assay: Inhibition of PI3Kα kinase activity, ADP-Glo Assay (Reaction Biology); type: biochemical; conditions: 10 μM ATP; mean of two replicates; Table 12; read-out: Inhibition of kinase activity (as IC50) PICK
Chain of human PI3Kα (p110α/p85α) (P42336 whole entry): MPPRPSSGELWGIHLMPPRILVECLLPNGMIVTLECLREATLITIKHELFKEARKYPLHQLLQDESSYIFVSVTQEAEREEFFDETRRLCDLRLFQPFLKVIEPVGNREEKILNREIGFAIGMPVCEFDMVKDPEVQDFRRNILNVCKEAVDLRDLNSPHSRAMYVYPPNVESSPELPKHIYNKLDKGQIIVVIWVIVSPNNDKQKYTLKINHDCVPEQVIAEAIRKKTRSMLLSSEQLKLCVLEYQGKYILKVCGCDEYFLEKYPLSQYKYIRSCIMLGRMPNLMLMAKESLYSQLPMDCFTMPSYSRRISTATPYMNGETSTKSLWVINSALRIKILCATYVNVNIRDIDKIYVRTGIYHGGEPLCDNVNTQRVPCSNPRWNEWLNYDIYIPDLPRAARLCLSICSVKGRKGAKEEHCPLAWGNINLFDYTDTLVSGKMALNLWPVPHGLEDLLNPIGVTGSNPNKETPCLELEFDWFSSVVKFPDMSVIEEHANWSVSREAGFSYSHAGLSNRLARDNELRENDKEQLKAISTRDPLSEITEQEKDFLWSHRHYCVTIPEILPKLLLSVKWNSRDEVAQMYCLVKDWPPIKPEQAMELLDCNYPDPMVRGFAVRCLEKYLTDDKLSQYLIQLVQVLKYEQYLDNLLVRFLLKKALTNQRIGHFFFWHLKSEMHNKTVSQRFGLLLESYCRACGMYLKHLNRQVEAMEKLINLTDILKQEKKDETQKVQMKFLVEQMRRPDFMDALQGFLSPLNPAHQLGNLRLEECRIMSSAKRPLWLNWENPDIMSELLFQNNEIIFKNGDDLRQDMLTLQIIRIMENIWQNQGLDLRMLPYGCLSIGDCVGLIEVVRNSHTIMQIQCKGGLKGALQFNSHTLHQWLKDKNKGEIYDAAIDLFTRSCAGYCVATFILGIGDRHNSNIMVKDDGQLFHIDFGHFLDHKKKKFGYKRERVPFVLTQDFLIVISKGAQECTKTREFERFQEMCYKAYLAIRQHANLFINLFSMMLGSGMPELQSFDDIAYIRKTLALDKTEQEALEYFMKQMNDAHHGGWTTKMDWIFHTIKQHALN
Chain of human PI3Kα (p110α/p85α) (P27986 whole entry partner): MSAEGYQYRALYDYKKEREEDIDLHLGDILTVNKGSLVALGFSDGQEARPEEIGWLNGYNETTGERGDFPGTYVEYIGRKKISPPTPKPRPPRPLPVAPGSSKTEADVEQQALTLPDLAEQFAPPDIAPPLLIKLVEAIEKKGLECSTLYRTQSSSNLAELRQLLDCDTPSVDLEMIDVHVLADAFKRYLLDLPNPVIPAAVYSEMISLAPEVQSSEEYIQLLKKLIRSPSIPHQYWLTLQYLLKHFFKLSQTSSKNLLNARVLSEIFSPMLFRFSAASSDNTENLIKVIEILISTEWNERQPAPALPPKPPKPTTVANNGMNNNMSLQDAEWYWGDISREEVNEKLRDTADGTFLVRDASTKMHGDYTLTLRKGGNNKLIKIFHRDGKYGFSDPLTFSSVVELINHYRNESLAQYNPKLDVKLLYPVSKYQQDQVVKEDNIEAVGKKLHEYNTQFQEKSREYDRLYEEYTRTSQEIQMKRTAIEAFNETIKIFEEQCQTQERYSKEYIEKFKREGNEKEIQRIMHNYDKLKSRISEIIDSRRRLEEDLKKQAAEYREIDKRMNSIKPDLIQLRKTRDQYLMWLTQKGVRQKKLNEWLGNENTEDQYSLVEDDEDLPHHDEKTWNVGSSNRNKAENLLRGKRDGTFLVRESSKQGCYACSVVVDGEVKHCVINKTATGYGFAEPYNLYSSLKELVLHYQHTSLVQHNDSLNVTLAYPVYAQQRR

ATR/ATRIP = ATR/ATRIP (Homo sapiens, UniProt Q13535); assay: ATR/ATRIP Human PIKK Kinase Enzymatic Radiometric Assay, KinaseProfiler (Eurofins Discovery); type: biochemical; conditions: Km ATP, Table 15, read-out: Inhibition of PIKK kinase activity ATR
ATM = ATM (Homo sapiens, UniProt Q13315); assay: ATM Human PIKK Kinase Enzymatic ELISA/EIA Assay, KinaseProfiler (Eurofins Discovery); type: biochemical; conditions: KinaseProfiler, Km ATP; Table 15; read-out: Inhibition of PIKK kinase activity ATM
Chain of ATM (Q13315 whole entry): as the sequence (Q13315 whole entry, change not shown) above

UT-SCC-54C cells [2] = assay: Radiosensitisation of UT-SCC-54C HNSCC cells, regrowth (sulforhodamine B) assay, oxic (Table 16); type: cell-based, human; conditions: for IC50: Homo sapiens, read-out: IC50; for S50: compound in combination with 3 Gy of radiation, 50% inhibition of regrowth fraction, UT-SCC-54C; for S50 / radiosensitisation / differential growth inhibition of UT-SCC-54C cells: oxic; for radiosensitisation / differential growth inhibition of UT-SCC-54C cells: 0 or 3 Gy, regrowth assay
UT-SCC-54C cells [3] = assay: Radiosensitisation of UT-SCC-54C HNSCC cells, clonogenic survival, oxic and anoxic (Table 18); type: cell-based, human; conditions: for Plating efficiency drug/no drug: no radiation; for SER (sensitiser enhancement ratio): UT-SCC-54C, anoxic conditions, FIG. 10; for SER (sensitiser enhancement ratio) / radiosensitisation of UT-SCC-54C cells under oxic conditions: clonogenic survival; for radiosensitisation of UT-SCC-54C cells under oxic conditions: FIG. 9
[4] = test system: UT-SCC-54C tumour xenografts; assay: Radiosensitisation of UT-SCC-54C HNSCC tumours, ex vivo clonogenic assay of tumour xenografts; type: in vivo, female NIH-III mice
UT-SCC-54C cells [5] = assay: Hypoxia-selective metabolism of prodrugs by UT-SCC-54C cells, LC-MS; conditions: 10 μM, 0-3 h
[6] = 10 μM ATP, 10 μg/ml DNA, mean of two replicates, Table 12, read-out: Inhibition of kinase activity (as IC50) DNA-PK (converted)
[7] = HotSpot assay Reaction Biology Corp., Table 15, read-out: Inhibition of PIKK kinase activity DNA-PK
[8] = Inhibition of PIKK kinase activity mTOR/FRAP (nM), HotSpot assay Reaction Biology Corp., Table 15
[9] = Inhibition of kinase activity (as IC50) mTOR (nM), 10 μM ATP, mean of two replicates, Table 12

SMILES	radiosensitisation / differential growth inhibition of DNA-PK null HAP1 line (HAP1/PRKDC−/− cells)	IC50 (HAP1/PRKDC−/− cells) [µM]	IC50 (human DNA-PK; [6])	IC50 (human DNA-PK; [7]) [µM]	radiosensitisation / differential growth inhibition of HAP1 cells (HAP1 cells)	IC50 (HAP1 cells) [µM]	IC50 (human mTOR; [8]) [nM]	IC50 (human mTOR; [9]) [nM]	IC50 (human PI3Kα (p110α/p85α))	IC50 (ATR/ATRIP) [µM]	IC50 (ATM) [µM]	IC50 (UT-SCC-54C cells [2]) [µM]	S50 (UT-SCC-54C cells [2]) [µM]	radiosensitisation / differential growth inhibition of UT-SCC-54C cells (UT-SCC-54C cells [2])	SER (sensitiser enhancement ratio) (UT-SCC-54C cells [3])	radiosensitisation of UT-SCC-54C cells under oxic conditions (UT-SCC-54C cells [3])	other results
Cc1cc(OCc2cnc([N+](=O)[O-])n2C)ccc1Nc1cc2c(cn1)n(C)c(=O)n2C1CCCC1 [Compound 234, 1-Cyclopentyl-3-methyl-6-((2-methyl-4-((1-methyl-2-nitro-1H-imidazol-5-yl)methoxy)phenyl)amino)-1,3-dihydro-2H-imidazo[4,5-c]pyridin-2-one]	did not demonstrate any differential growth inhibition	8.6	0.766 µM	0.766	did not demonstrate any differential growth inhibition	9.74	30000	30000	0.877 µM	> 100	> 100	10.6	10.9	did not display any differential growth inhibition	1.37	does not	inhibition of phosphorylation of Ser1981 on ATM [1]: did not inhibit; inhibition of radiation-induced Ser2056 autophosphorylation under anoxia (Ser2056 of DNA-PKcs; anoxic, FIG. 6 (20 μM)): able to inhibit phosphorylation; inhibition of Ser2056 on DNA-PKcs (Ser2056 of DNA-PKcs; oxia, 10 Gy, FIG. 7 (10 μM)): did not inhibit; inhibition of Ser2056 autophosphorylation under oxia (Ser2056 of DNA-PKcs; oxic, 10 Gy, FIG. 5 (20 μM)): little inhibition; D1 (radiation dose for 1% surviving fraction) (UT-SCC-54C cells [3]; 0% O2, compound conc 10 μM): 9.72 Gy; D10 (radiation dose for 10% surviving fraction) (UT-SCC-54C cells [3]; 0% O2, compound conc 10 μM): 6.78 Gy; SER1 (sensitiser enhancement ratio at 1% surviving fraction) (UT-SCC-54C cells [3]; 0% O2, compound conc 10 μM): 1.25; SER10 (sensitiser enhancement ratio at 10% surviving fraction) (UT-SCC-54C cells [3]; 0% O2, compound conc 10 μM): 1.79; Plating efficiency drug/no drug (UT-SCC-54C cells [3]; 0% O2, compound conc 10 μM): 1.01; D1 (radiation dose for 1% surviving fraction) (UT-SCC-54C cells [3]; 20% O2, compound conc 10 μM): 7.43 Gy; D10 (radiation dose for 10% surviving fraction) (UT-SCC-54C cells [3]; 20% O2, compound conc 10 μM): 4.96 Gy; SER1 (sensitiser enhancement ratio at 1% surviving fraction) (UT-SCC-54C cells [3]; 20% O2, compound conc 10 μM): 1.16; SER10 (sensitiser enhancement ratio at 10% surviving fraction) (UT-SCC-54C cells [3]; 20% O2, compound conc 10 μM): 1.13; Plating efficiency drug/no drug (UT-SCC-54C cells [3]; 20% O2, compound conc 10 μM): 1.57
COc1ccc(N(C(=O)OCc2cnc([N+](=O)[O-])n2C)c2cc3c(cn2)n(C)c(=O)n3C2CCOCC2)c(C)c1 [Compound 248, (1-Methyl-2-nitro-1H-imidazol-5-yl)methyl (4-methoxy-2-methylphenyl)(3-methyl-2-oxo-1-(tetrahydro-2H-pyran-4-yl)-2,3-dihydro-1H-imidazo[4,5-c]pyridin-6-yl)carbamate]	did not demonstrate any differential growth inhibition	> 10	0.0185 µM and 0.14 µM	0.0185	did not demonstrate any differential growth inhibition	> 10	≥ 10000	> 100000	107 µM and > 100 µM	> 100	> 100	> 10	>10	did not display any differential growth inhibition	1.82	does not	reduction in clonogens/gram of tumour, compound with radiation compared to radiation alone ([4]; IP 50 mg/kg 15 min before and 6 h after 13 Gy whole-body irradiation): smaller, but significant (p=0.018) effect; reduction in clonogens/gram of tumour tissue, compound alone ([4]; IP 2 x 50 mg/kg, no radiation, compared to DMSO control): no reduction; IC50 (human mTOR; read-out: Inhibition of kinase activity (as IC50) mTOR, 10 μM ATP, mean of two replicates, Table 12): > 100000 nM; metabolism of prodrug by UT-SCC-54C cells under anoxic conditions (release of 121) (UT-SCC-54C cells [5]; anoxic): selectively metabolised; metabolism of prodrug by UT-SCC-54C cells under oxic conditions (UT-SCC-54C cells [5]; oxic): not under oxic conditions; D1 (radiation dose for 1% surviving fraction) (UT-SCC-54C cells [3]; 0% O2, compound conc 1 μM): 13.8 Gy; D10 (radiation dose for 10% surviving fraction) (UT-SCC-54C cells [3]; 0% O2, compound conc 1 μM): 8.57 Gy; SER1 (sensitiser enhancement ratio at 1% surviving fraction) (UT-SCC-54C cells [3]; 0% O2, compound conc 1 μM): 1.71; SER10 (sensitiser enhancement ratio at 10% surviving fraction) (UT-SCC-54C cells [3]; 0% O2, compound conc 1 μM): 1.73; Plating efficiency drug/no drug (UT-SCC-54C cells [3]; 0% O2, compound conc 1 μM): 1.13; D1 (radiation dose for 1% surviving fraction) (UT-SCC-54C cells [3]; 20% O2, compound conc 1 μM): 9.34 Gy; D10 (radiation dose for 10% surviving fraction) (UT-SCC-54C cells [3]; 20% O2, compound conc 1 μM): 5.61 Gy; SER1 (sensitiser enhancement ratio at 1% surviving fraction) (UT-SCC-54C cells [3]; 20% O2, compound conc 1 μM): 1.04; SER10 (sensitiser enhancement ratio at 10% surviving fraction) (UT-SCC-54C cells [3]; 20% O2, compound conc 1 μM): 1.12; Plating efficiency drug/no drug (UT-SCC-54C cells [3]; 20% O2, compound conc 1 μM): 1.21
